# Results from ChEMBL document CHEMBL4308841, “Synthesis, in vitro antiproliferative activity, and kinase inhibitory effects of pyrazole-containing diarylureas and diarylamides” (Eur J Med Chem, 2018).
# Experiments:
# M14 [1] = assay: Growth inhibition of human M14 cells assessed as cell growth at 10 uM incubated for 48 hrs by sulforhodamine B assay relative to control; format: functional; conditions: M14, 48 h, read-out: Activity
# SR = assay: Growth inhibition of human SR cells assessed as cell growth at 10 uM incubated for 48 hrs by sulforhodamine B assay relative to control; format: functional; conditions: read-out: Activity
# HCC 2998 [2] = assay: Growth inhibition of human HCC2998 cells assessed as cell growth at 10 uM incubated for 48 hrs by sulforhodamine B assay relative to control; format: functional; conditions: HCC 2998, 48 h, read-out: Activity
# SNB-19 = assay: Growth inhibition of human SNB19 cells assessed as cell growth at 10 uM incubated for 48 hrs by sulforhodamine B assay relative to control; format: functional; conditions: SNB-19, 48 h, read-out: Activity
# ACHN [3] = assay: Growth inhibition of human ACHN cells incubated for 48 hrs by sulforhodamine B assay; format: functional, cell-based
# HCC 2998 [4] = assay: Growth inhibition of human HCC2998 cells incubated for 48 hrs by sulforhodamine B assay; format: functional, cell-based; conditions: HCC 2998, 48 h
# LOX IMVI = assay: Growth inhibition of human LOXIMVI cells assessed as cell growth at 10 uM incubated for 48 hrs by sulforhodamine B assay relative to control; format: functional; conditions: read-out: Activity
# MDA-MB-468 [5] = assay: Growth inhibition of human MDA-MB-468 cells assessed as cell growth at 100 uM incubated for 48 hrs by sulforhodamine B assay relative to control; format: functional; conditions: MDA-MB-468, 48 h, read-out: Activity
# UACC-62 = assay: Growth inhibition of human UACC62 cells assessed as cell growth at 0.1 uM incubated for 48 hrs by sulforhodamine B assay relative to control; format: functional; conditions: UACC-62, 48 h, read-out: Activity
# NCI/ADR-RES = assay: Growth inhibition of human NCI/ADR-RES cells assessed as cell growth at 10 uM incubated for 48 hrs by sulforhodamine B assay relative to control; format: functional; conditions: read-out: Activity
# UO-31 = assay: Growth inhibition of human UO31 cells assessed as cell growth at 0.01 uM incubated for 48 hrs by sulforhodamine B assay relative to control; format: functional; conditions: UO-31, 48 h, read-out: Activity
# HL-60(TB) = assay: Growth inhibition of human HL-60(TB) cells assessed as cell growth at 10 uM incubated for 48 hrs by sulforhodamine B assay relative to control; format: functional; conditions: HL-60, 48 h, read-out: Activity
# ACHN [6] = assay: Growth inhibition of human ACHN cells assessed as cell growth at 100 uM incubated for 48 hrs by sulforhodamine B assay relative to control; format: functional; conditions: read-out: Activity
# SF-295 = assay: Growth inhibition of human SF295 cells assessed as cell growth at 10 uM incubated for 48 hrs by sulforhodamine B assay relative to control; format: functional; conditions: SF-295, 48 h, read-out: Activity
# Malme-3M = assay: Growth inhibition of human MALME-3M cells assessed as cell growth at 10 uM incubated for 48 hrs by sulforhodamine B assay relative to control; format: functional; conditions: read-out: Activity
# OVCAR-4 [7] = assay: Growth inhibition of human OVCAR4 cells incubated for 48 hrs by sulforhodamine B assay; format: functional, cell-based; conditions: OVCAR-4, 48 h
# U-251 [8] = assay: Growth inhibition of human U251 cells assessed as cell growth at 1 uM incubated for 48 hrs by sulforhodamine B assay relative to control; format: functional; conditions: U-251, 48 h, read-out: Activity
# OVCAR-8 = assay: Growth inhibition of human OVCAR8 cells assessed as cell growth at 10 uM incubated for 48 hrs by sulforhodamine B assay relative to control; format: functional; conditions: OVCAR-8, 48 h, read-out: Activity
# SK-OV-3 = assay: Growth inhibition of human SKOV3 cells assessed as cell growth at 10 uM incubated for 48 hrs by sulforhodamine B assay relative to control; format: functional; conditions: SK-OV-3, 48 h, read-out: Activity
# OVCAR-4 [9] = assay: Growth inhibition of human OVCAR4 cells assessed as cell growth at 10 uM incubated for 48 hrs by sulforhodamine B assay relative to control; format: functional; conditions: OVCAR-4, 48 h, read-out: Activity
# U-251 [10] = assay: Growth inhibition of human U251 cells incubated for 48 hrs by sulforhodamine B assay; format: functional, cell-based; conditions: U-251, 48 h
# UACC-257 = assay: Growth inhibition of human UACC257 cells assessed as cell growth at 10 uM incubated for 48 hrs by sulforhodamine B assay relative to control; format: functional; conditions: UACC-257, 48 h, read-out: Activity
# Hs-578T = assay: Growth inhibition of human Hs578T cells assessed as cell growth at 10 uM incubated for 48 hrs by sulforhodamine B assay relative to control; format: functional; conditions: read-out: Activity
# HOP-62 = assay: Growth inhibition of human HOP62 cells assessed as cell growth at 10 uM incubated for 48 hrs by sulforhodamine B assay relative to control; format: functional; conditions: HOP-62, 48 h, read-out: Activity
# MDA-MB-435 = assay: Growth inhibition of human MDA-MB-435 cells assessed as cell growth at 10 uM incubated for 48 hrs by sulforhodamine B assay relative to control; format: functional; conditions: MDA-MB-435, 48 h, read-out: Activity
# MDA-MB-468 [11] = assay: Growth inhibition of human MDA-MB-468 cells assessed as cell growth at 10 uM incubated for 48 hrs by sulforhodamine B assay relative to control; format: functional; conditions: MDA-MB-468, 48 h, read-out: Activity
# K562 = assay: Growth inhibition of human K562 cells assessed as cell growth at 10 uM incubated for 48 hrs by sulforhodamine B assay relative to control; format: functional; conditions: K562, 48 h, read-out: Activity
# RPMI-8226 = assay: Growth inhibition of human RPMI8226 cells assessed as cell growth at 10 uM incubated for 48 hrs by sulforhodamine B assay relative to control; format: functional; conditions: RPMI-8226, 48 h, read-out: Activity
# M14 [12] = assay: Growth inhibition of human M14 cells assessed as cell growth at 0.01 uM incubated for 48 hrs by sulforhodamine B assay relative to control; format: functional; conditions: M14, 48 h, read-out: Activity
# SF-268 = assay: Growth inhibition of human SF268 cells assessed as cell growth at 10 uM incubated for 48 hrs by sulforhodamine B assay relative to control; format: functional; conditions: SF-268, 48 h, read-out: Activity
# HCT-15 = assay: Growth inhibition of human HCT15 cells assessed as cell growth at 10 uM incubated for 48 hrs by sulforhodamine B assay relative to control; format: functional; conditions: HCT-15, 48 h, read-out: Activity
# [13] = read-out: LC50 (the source's name)
# [14] = read-out: pLC50 (the source's name) (converted)
smiles,measurement,setting,value
COc1cc(Cl)cc(-c2nn(-c3cccc(NC(=O)Nc4ccc(Cl)c(Cl)c4)c3)cc2-c2ccncc2)c1,growth at 10 µM,M14 [1],18.7%
same,growth at 10 µM,SR,-18.4%
same,growth at 10 µM,HCC 2998 [2],26.7%
same,growth at 10 µM,SNB-19,17.8%
same,GI50,ACHN [3]; read-out: GI50,3.23 µM
same,CC50,ACHN [3]; [13],> 100 µM
same,TGI,ACHN [3]; read-out: TGI,> 100 µM
same,GI50,ACHN [3]; read-out: pGI50 (converted),3.24 µM
same,CC50,ACHN [3]; [14],> 100 µM
same,TGI,ACHN [3]; read-out: pTGI (converted),> 100 µM
same,GI50,HCC 2998 [4]; read-out: GI50,3.16 µM
same,CC50,HCC 2998 [4]; [13],> 100 µM
same,TGI,HCC 2998 [4]; read-out: TGI,35.8 µM
same,GI50,HCC 2998 [4]; read-out: pGI50 (converted),3.16 µM
same,CC50,HCC 2998 [4]; [14],> 100 µM
same,TGI,HCC 2998 [4]; read-out: pTGI (converted),37.2 µM
same,growth at 10 µM,LOX IMVI,9.24%
same,growth at 100 µM,MDA-MB-468 [5],-18%
same,growth at 0.1 µM,UACC-62,97%
same,growth at 10 µM,NCI/ADR-RES,8.59%
same,growth at 0.01 µM,UO-31,89%
same,growth at 10 µM,HL-60(TB),-5.12%
same,growth at 100 µM,ACHN [6],6%
same,growth at 10 µM,SF-295,-2.42%
same,growth at 10 µM,Malme-3M,-19.8%
same,GI50,OVCAR-4 [7]; read-out: GI50,2 µM
same,CC50,OVCAR-4 [7]; [13],> 100 µM
same,TGI,OVCAR-4 [7]; read-out: TGI,53.8 µM
same,GI50,OVCAR-4 [7]; read-out: pGI50 (converted),2.82 µM
same,CC50,OVCAR-4 [7]; [14],> 100 µM
same,TGI,OVCAR-4 [7]; read-out: pTGI (converted),53.7 µM
same,growth at 1 µM,U-251 [8],71%
same,growth at 10 µM,OVCAR-8,1.93%
same,growth at 10 µM,SK-OV-3,14.2%
same,growth at 10 µM,OVCAR-4 [9],13.3%
same,IC50,U-251 [10],1.7 µM
same,GI50,U-251 [10]; read-out: GI50,1.7 µM
same,CC50,U-251 [10]; [13],4.16 µM
same,TGI,U-251 [10]; read-out: TGI,60.3 µM
same,GI50,U-251 [10]; read-out: pGI50 (converted),1.7 µM
same,CC50,U-251 [10]; [14],41.7 µM
same,TGI,U-251 [10]; read-out: pTGI (converted),6.03 µM
same,growth at 10 µM,UACC-257,-11.4%
same,growth at 10 µM,Hs-578T,28.5%
same,growth at 10 µM,HOP-62,15.7%
same,growth at 10 µM,MDA-MB-435,0.46%
same,growth at 10 µM,MDA-MB-468 [11],0.72%
same,growth at 10 µM,K562,10%
same,growth at 10 µM,RPMI-8226,-4.44%
same,growth at 0.01 µM,M14 [12],97%
same,growth at 10 µM,SF-268,25.3%
same,growth at 10 µM,HCT-15,13.9%
O=C(Nc1cccc(-n2cc(-c3ccncc3)c(-c3cc(O)cc(Cl)c3)n2)c1)c1cc(C(F)(F)F)cc(C(F)(F)F)c1,growth at 10 µM,M14 [1],24.5%
same,growth at 10 µM,SR,3.15%
same,growth at 10 µM,HCC 2998 [2],28.9%
same,growth at 10 µM,SNB-19,63.1%
same,GI50,ACHN [3]; read-out: GI50,4.96 µM
same,CC50,ACHN [3]; [13],> 100 µM
same,TGI,ACHN [3]; read-out: TGI,> 100 µM
same,GI50,ACHN [3]; read-out: pGI50 (converted),5.01 µM
same,CC50,ACHN [3]; [14],> 100 µM
same,TGI,ACHN [3]; read-out: pTGI (converted),> 100 µM
same,GI50,HCC 2998 [4]; read-out: GI50,3.12 µM
same,CC50,HCC 2998 [4]; [13],> 100 µM
same,TGI,HCC 2998 [4]; read-out: TGI,11.6 µM
same,GI50,HCC 2998 [4]; read-out: pGI50 (converted),3.09 µM
same,CC50,HCC 2998 [4]; [14],> 100 µM
same,TGI,HCC 2998 [4]; read-out: pTGI (converted),11.7 µM
same,growth at 10 µM,LOX IMVI,10.5%
same,growth at 100 µM,MDA-MB-468 [5],2%
same,growth at 0.1 µM,UACC-62,97%
same,growth at 10 µM,NCI/ADR-RES,46.9%
same,growth at 0.01 µM,UO-31,57%
same,growth at 10 µM,HL-60(TB),21.4%
same,growth at 100 µM,ACHN [6],19%
same,growth at 10 µM,SF-295,15%
same,growth at 10 µM,Malme-3M,61.8%
same,GI50,OVCAR-4 [7]; read-out: GI50,8.53 µM
same,CC50,OVCAR-4 [7]; [13],> 100 µM
same,TGI,OVCAR-4 [7]; read-out: TGI,> 100 µM
same,GI50,OVCAR-4 [7]; read-out: pGI50 (converted),8.51 µM
same,CC50,OVCAR-4 [7]; [14],> 100 µM
same,TGI,OVCAR-4 [7]; read-out: pTGI (converted),> 100 µM
same,growth at 1 µM,U-251 [8],53%
same,growth at 10 µM,OVCAR-8,39.6%
same,growth at 10 µM,SK-OV-3,68.8%
same,growth at 10 µM,OVCAR-4 [9],59.6%
same,IC50,U-251 [10],3.23 µM
same,GI50,U-251 [10]; read-out: GI50,3.23 µM
same,CC50,U-251 [10]; [13],> 100 µM
same,TGI,U-251 [10]; read-out: TGI,24.4 µM
same,GI50,U-251 [10]; read-out: pGI50 (converted),3.24 µM
same,CC50,U-251 [10]; [14],> 100 µM
same,TGI,U-251 [10]; read-out: pTGI (converted),30.9 µM
same,growth at 10 µM,UACC-257,71%
same,growth at 10 µM,Hs-578T,65.9%
same,growth at 10 µM,HOP-62,58.3%
same,growth at 10 µM,MDA-MB-435,45.6%
same,growth at 10 µM,MDA-MB-468 [11],31.2%
same,growth at 10 µM,K562,20.4%
same,growth at 10 µM,RPMI-8226,32.1%
same,growth at 0.01 µM,M14 [12],100%
same,growth at 10 µM,SF-268,69.3%
same,growth at 10 µM,HCT-15,30.1%
